In test [1] the test system is "Na+ channel site 2"-binding site. Briefly: Binding to the Na+ channel site 2 binding site ([3H]-BTX). Particulars: test concentration typically 10 μM. On the procedure:
(§1) The tests were typically carried out at a test concentration of 10 μM.

For the next test, the system named is Sigma receptor. Briefly: Sigma receptor binding study. Particulars: test concentration typically 10 μM. On the procedure:
as §1

A further test addresses T1, Histamine H1 receptor (Cavia porcellus, UniProt P31389).
T1 construct: from tissue
Kind of test: Histamine H1 receptor binding study. Particulars: test concentration typically 10 μM; read-out: H1 Inh. [%]. From the text: Table 5 summarises the inhibitory values on the above receptors:

The subject of test [2] is permanent focal cerebral ischaemia (MCAO). Kind of test: Stroke model in the rat, permanent focal cerebral ischaemia by occlusion of the arteria cerebri media (MCAO). The format is in vivo. The text has this: A permanent focal cerebral ischaemia was induced by surgical occlusion of the arteria cerbri media (MCAO) (based on A. Tamura, D. I. Graham, J. McCulloch and G. M. Teasdale, J. Cereb. Blood Flow Metab. 1 (1981) 53-60).

The next test concerns AMPA receptor. Briefly: Inhibition of the cainate-induced signal at the AMPA receptor, electrophysiology on neuronal cells (Patch-Clamp-Method). The format is cell-based. Particulars: test concentration of 100 μM. The procedure:
The tests were carried out at a test concentration of 100 μM.
(In general: In patch-clamp work, channel activity is measured electrically.)

The structures appear in SMILES notation.

These results are taken from patent US6277872A, “Oxadiazoles, processes for their preparation and their use as medicaments” (Boehringer Ingelheim KG, priority 1996, dated 2001).

T1 sequence (P31389 whole entry): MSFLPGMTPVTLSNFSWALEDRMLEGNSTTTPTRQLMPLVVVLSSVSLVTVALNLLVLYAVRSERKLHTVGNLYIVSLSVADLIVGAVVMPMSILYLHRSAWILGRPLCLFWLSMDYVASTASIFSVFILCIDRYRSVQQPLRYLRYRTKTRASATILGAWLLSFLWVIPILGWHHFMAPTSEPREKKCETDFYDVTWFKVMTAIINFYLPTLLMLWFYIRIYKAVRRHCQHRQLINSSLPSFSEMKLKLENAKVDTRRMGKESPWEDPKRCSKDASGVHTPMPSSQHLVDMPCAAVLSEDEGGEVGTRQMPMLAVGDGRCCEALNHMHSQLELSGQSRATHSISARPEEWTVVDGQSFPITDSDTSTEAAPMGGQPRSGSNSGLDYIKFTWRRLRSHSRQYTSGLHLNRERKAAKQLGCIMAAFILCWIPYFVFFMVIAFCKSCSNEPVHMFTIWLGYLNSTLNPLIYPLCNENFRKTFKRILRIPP

Turning to `CN(C)CCOc1ccccc1-c1nc(-c2ccccc2)no1` [Example 2, 5-{2-[2-(N,N-dimethylamino)ethyl]oxy-phenyl}-3-phenyl-1,2,4-oxadiazole], in test [1], the “Na+-channel Inh. [%] ([3H]-BTX)” value is 86%. Further, the “Sigma Inh. [%]” value in the test with Sigma receptor was 62%. Besides, at Histamine H1 receptor, the inhibition at 10 µM stood at 99%. In addition, in test [2], the “volume of the lesion” value was “reduce the volume of the lesion significantly”. Besides, the “AMPA Inh. [%] (inhibiting the cainate-induced signal at the AMPA receptor)” value with AMPA receptor came to 86%.
Consider `CN(C)CCOc1ccccc1-c1nc(Cc2ccccc2)no1` [Example 31, 5-{2-[2-(N,N-Dimethylamino)-ethyl]oxy-phenyl}-3-benzyl-1,2,4-oxadiazole], for which the “Na+-channel Inh. [%] ([3H]-BTX)” value in test [1] turned out to be 82%. Also, the “Sigma Inh. [%]” value with Sigma receptor was 77%. Further, the inhibition at 10 µM at Histamine H1 receptor was found to be 94%. Moreover, in the test with AMPA receptor, the “AMPA Inh. [%] (inhibiting the cainate-induced signal at the AMPA receptor)” value is 23%.
For `Cc1ccccc1-c1noc(-c2ccccc2OCCN(C)C)n1` [Example 33] the same measures were 84%, 77%, 87% and 87%.
The matching figures for `CN(C)CCOc1ccccc1-c1nc(-c2ccccc2F)no1` [Example 34]: 88%, 75%, 96% and 97%.
The matching figures for `Cc1cccc(-c2noc(-c3ccccc3OCCN(C)C)n2)c1` [Example 37, 5-{2-[2-(N,N-Dimethylamino)-ethyl]oxy-phenyl}-3-(3-methyl-phenyl)-1,2,4-oxadiazole]: 93%, 82%, 93% and 93%.
Take `CN1CCN(c2ccccc2-c2nc(-c3ccccc3)no2)CC1` [Example 40, 5-[2-(4-methylpiperazin-1yl)-phenyl]-3-phenyl-1,2,4-oxadiazole]: the “Na+-channel Inh. [%] ([3H]-BTX)” value in test [1] is given as 88%. Besides, the “Sigma Inh. [%]” value with Sigma receptor was found to be 76%. For the same compound, the inhibition at 10 µM on Histamine H1 receptor came out at 99%. The “AMPA Inh. [%] (inhibiting the cainate-induced signal at the AMPA receptor)” value with AMPA receptor stood at 37%.
For `CN(C)CCOc1ccccc1-c1nc(-c2cccs2)no1` [Example 42, 5-{2-[2-(N,N-Dimethylamino)-ethyl]oxy-phenyl}-3-(2-thienyl)-1,2,4-oxadiazole] the same measures were 89%, 57%, 94% and 79%.
The matching figures for `CN(C)CCOc1ccccc1-c1nc(-c2ccccn2)no1` [Example 43, 5-{2-[2-(N,N-Dimethylamino)-ethyl]oxy-phenyl}-3-(2-pyridyl)-1,2,4-oxadiazole]: 72%, 0%, 86% and 77%.
For `CN(C)CCOc1ccccc1-c1nc(-c2cccc(C(F)(F)F)c2)no1` [Example 44, 5-{2-[2-(N,N-Dimethylamino)-ethyl]oxy-phenyl}-3-(3-rifluoromethylphenyl)-1,2,4-oxadiazole] the same measures were 89%, 93%, 74% and 62%.
With `CN(C)CCOc1ccccc1-c1nc(-c2ccc(F)cc2)no1` [Example 45, 5-{2-[2-(N,N-Dimethylamino)-ethyl]oxy-phenyl}-3-(4-fluoro-phenyl)-1,2,4-oxadiazole], in test [1], the “Na+-channel Inh. [%] ([3H]-BTX)” value is 79%. For the same compound, the “Sigma Inh. [%]” value in the test on Sigma receptor stood at 85%. Besides, the inhibition at 10 µM on Histamine H1 receptor was 98%. Further, in the test on AMPA receptor, the “AMPA Inh. [%] (inhibiting the cainate-induced signal at the AMPA receptor)” value amounted to 64%.
As to `CN(C)CCOc1ccccc1-c1nc(-c2ccc(N)cc2)no1` [Example 47, 5-{2-[2-(N,N-Dimethylamino)-ethyl]oxy-phenyl}-3-(4-amino-phenyl)-1,2,4-oxadiazole], the “Na+-channel Inh. [%] ([3H]-BTX)” value in test [1] worked out at 74%. For the same compound, the “Sigma Inh. [%]” value in the test on Sigma receptor is given as 56%. For the same compound, the inhibition at 10 µM on Histamine H1 receptor stood at 82%. Besides, in the test with AMPA receptor, the “AMPA Inh. [%] (inhibiting the cainate-induced signal at the AMPA receptor)” value is reported as 59%.
For `CN(C)CCOc1ccccc1-c1nc(-c2cccc(Br)c2)no1` [Example 48, 5-{2-[2-(N,N-Dimethylamino)-ethyl]oxy-phenyl}-3-(3-bromophenyl)-1,2,4-oxadiazole] the same measures were 85%, 74%, 78% and 85%.
Turning to `CN(C)CCOc1ccccc1-c1nc(-c2ccco2)no1` [Example 57, 5-{2-[2-(N,N-Dimethylamino)-ethyl]oxy-phenyl}-3-(2-furyl)-1,2,4-oxadiazole], the “Na+-channel Inh. [%] ([3H]-BTX)” value in test [1] amounted to 54%. In addition, the “Sigma Inh. [%]” value in the test on Sigma receptor is 49%. Besides, the inhibition at 10 µM at Histamine H1 receptor came to 90%. In addition, in the test on AMPA receptor, the “AMPA Inh. [%] (inhibiting the cainate-induced signal at the AMPA receptor)” value was determined as 51%.
`CN(C)CCOc1ccccc1-c1nc(-c2cccc(Cl)c2)no1` [Example 59, 5-{2-[2-(N,N-Dimethylamino)-ethyl]oxy-phenyl}-3-(3-chlorophenyl)-1,2,4-oxadiazole]: the “Na+-channel Inh. [%] ([3H]-BTX)” value in test [1] came to 70%. Further, the “Sigma Inh. [%]” value in the test with Sigma receptor came out at 82%. Besides, at Histamine H1 receptor, the inhibition at 10 µM was found to be 84%. In addition, the “AMPA Inh. [%] (inhibiting the cainate-induced signal at the AMPA receptor)” value with AMPA receptor was found to be 54%.
As for `CN(C)CCOc1ccccc1-c1nc(-c2ccccc2Br)no1` [Example 64, 5-{2-[2-(N,N-Dimethylamino)-ethyl]oxy-phenyl}-3-(2-bromo-phenyl)-1,2,4-oxadiazole], the “Na+-channel Inh. [%] ([3H]-BTX)” value in test [1] was 99%. The “Sigma Inh. [%]” value in the test on Sigma receptor came to 76%. The inhibition at 10 µM on Histamine H1 receptor stood at 88%. In addition, in the test on AMPA receptor, the “AMPA Inh. [%] (inhibiting the cainate-induced signal at the AMPA receptor)” value came to 65%.
The matching figures for `Cc1ccc(-c2nc(-c3ccccc3)no2)c(OCCN(C)C)c1` [Example 67, 5-{2-[2-(N,N-Dimethylamino)-ethyl]oxy4-methyl-phenyl}-3-phenyl-1,2,4-oxadiazole]: 92%, 54%, 90% and 28%.
The matching figures for `Cc1cccc(-c2nc(-c3ccccc3)no2)c1OCCN(C)C` [Example 68, 5-{2-[2-(N,N-Dimethylamino)-ethyl]oxy-3-methyl-phenyl}-3-phenyl-1,2,4-oxadiazole]: 100%, 79%, 74% and 81%.
